The source of these data is PubChem BioAssay (NCI).

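Tested at 5 concentrations; 48 h exposure; 96-well plates; endpoints linearly interpolated, else capped at highest concentration. GI50 marks 50% less growth. TGI: concentration producing complete growth inhibition.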 Some results are limits rather than exact numbers.

Some test systems named below: TK-10 renal; HOP-62 NSCLC; OVCAR-8 ovarian; NCI-H522 lung; LOX IMVI melanoma; A498 renal; SF-539 CNS; EKVX NSCLC; MOLT-4 leukemia; T-47D breast.
Assay in all cases: NCI anticancer screen, dose series, 48 h

`Cc1cc2c(cc1Cl)SC(=Nc1ccc(Cl)cc1)N(S(=O)(=O)c1ccc(Br)s1)S2(=O)=O`: the GI50 in the assay with TK-10 renal is 19.9 µM; in the assay with HOP-62 NSCLC, 17.8 µM; in the assay on OVCAR-8 ovarian, 18.8 µM; in the assay on NCI-H522 lung it was 37.3 µM; with LOX IMVI melanoma, 9.26 µM; in the assay with A498 renal, 5.02 µM. Further, the GI50 in the assay with SF-539 CNS was 2.01 µM; in the assay with EKVX NSCLC it was 16.8 µM. Also, the TGI is 49.6 µM with TK-10 renal; 37.4 µM in the assay with HOP-62 NSCLC; 46.1 µM with OVCAR-8 ovarian; greater than 100 µM with NCI-H522 lung; 24.3 µM with LOX IMVI melanoma; 26.2 µM in the assay on A498 renal. Moreover, the TGI in the assay with SF-539 CNS came out at 9.93 µM; in the assay with EKVX NSCLC it was 36.3 µM.
`O=C1c2ccccc2C(=O)N1C/C=N/NS(=O)(=O)c1cccc([N+](=O)[O-])c1`: the TGI in the assay with TK-10 renal, in the assay with HOP-62 NSCLC, in the assay on OVCAR-8 ovarian, in the assay with NCI-H522 lung, in the assay on LOX IMVI melanoma and in the assay with MOLT-4 leukemia was greater than 100 µM in each case. In addition, the TGI in the assay on A498 renal, with SF-539 CNS and in the assay with EKVX NSCLC was greater than 100 µM in each case.
As to `COc1cccc(C2CC(C)(O)Oc3cc4c(cc32)OCO4)c1` (stereo not drawn), the TGI in the assay with TK-10 renal was 80.2 µM; in the assay with HOP-62 NSCLC, 74.4 µM; with T-47D breast, greater than 100 µM; in the assay on OVCAR-8 ovarian it was greater than 100 µM; with NCI-H522 lung it was 30.6 µM; in the assay with LOX IMVI melanoma, greater than 100 µM. In addition, the TGI in the assay with MOLT-4 leukemia was 60.5 µM; in the assay on EKVX NSCLC it was greater than 100 µM.
Turning to `CN(c1ccccc1)c1nc(=[N+](C)C)ss1`, the TGI with TK-10 renal, in the assay with HOP-62 NSCLC, in the assay with OVCAR-8 ovarian, with NCI-H522 lung, in the assay on A498 renal and with SF-539 CNS was greater than 100 µM throughout. In addition, in the assay with EKVX NSCLC, the TGI is greater than 100 µM.
On to `O=c1c2ccccc2c(=O)n2n1-c1cccc(c1)CSSCc1cccc-2c1`, for which the GI50 in the assay with TK-10 renal, with HOP-62 NSCLC, in the assay on OVCAR-8 ovarian, in the assay on NCI-H522 lung, in the assay with MOLT-4 leukemia and in the assay on SF-539 CNS was greater than 100 µM throughout. Also, the GI50 in the assay with EKVX NSCLC was greater than 100 µM. The TGI with TK-10 renal, in the assay with HOP-62 NSCLC, in the assay on OVCAR-8 ovarian, in the assay on NCI-H522 lung, in the assay on LOX IMVI melanoma and in the assay on MOLT-4 leukemia was greater than 100 µM throughout. For the same compound, the TGI in the assay with SF-539 CNS and with EKVX NSCLC was greater than 100 µM in each case.
As for `CCC(=O)N1C(=S)SC[C@H]1C(=O)OC`, the TGI in the assay on TK-10 renal, with HOP-62 NSCLC, in the assay on OVCAR-8 ovarian, with NCI-H522 lung, in the assay on LOX IMVI melanoma and with MOLT-4 leukemia was greater than 100 µM throughout. The TGI with A498 renal, in the assay with SF-539 CNS and with EKVX NSCLC was greater than 100 µM each time.
Regarding `O=[N+]([O-])c1ccc(Cl)c(C2CC(c3cccc4ccccc34)=Nc3ccccc3S2=O)c1` (stereo not drawn), the TGI with TK-10 renal is 98.2 µM; in the assay on HOP-62 NSCLC, greater than 62.6 µM; with OVCAR-8 ovarian, 20.8 µM; in the assay on LOX IMVI melanoma it was greater than 31.6 µM; with MOLT-4 leukemia, 62.8 µM; with A498 renal, 64.7 µM. The TGI in the assay on SF-539 CNS is 19.1 µM; in the assay with EKVX NSCLC, greater than 100 µM.
Regarding `CC[O-].CC[O-].[O-]c1ccccc1C=NC12CC3CC(CC(C3)C1)C2.[O-]c1ccccc1C=NC12CC3CC(CC(C3)C1)C2.[Ti+4]`, the GI50 in the assay with TK-10 renal was greater than 100 µM; in the assay with HOP-62 NSCLC, greater than 100 µM; with OVCAR-8 ovarian, greater than 100 µM; with LOX IMVI melanoma it was 57.8 µM; in the assay on MOLT-4 leukemia, greater than 100 µM; in the assay with SF-539 CNS, greater than 100 µM. In addition, the GI50 in the assay on EKVX NSCLC is greater than 100 µM. Further, the TGI in the assay on TK-10 renal, with HOP-62 NSCLC, in the assay on OVCAR-8 ovarian, in the assay with LOX IMVI melanoma, in the assay on MOLT-4 leukemia and with SF-539 CNS was greater than 100 µM each time. This compound also gave a TGI with EKVX NSCLC greater than 100 µM.
With `Nc1nc(N)c2cc(S(=O)(=O)c3cccc(C(F)(F)F)c3)ccc2n1`, the GI50 in the assay on TK-10 renal was 7.78 µM; with HOP-62 NSCLC, 6.43 µM; with OVCAR-8 ovarian, 4.22 µM; in the assay on NCI-H522 lung, 3.05 µM; with LOX IMVI melanoma it was 1.53 µM; in the assay with MOLT-4 leukemia it was 4.32 µM. In addition, the GI50 is 6.63 µM with SF-539 CNS and 3.32 µM in the assay with EKVX NSCLC. Also, the TGI is greater than 100 µM in the assay on TK-10 renal; 34.2 µM with HOP-62 NSCLC; greater than 100 µM in the assay with OVCAR-8 ovarian; greater than 100 µM in the assay on NCI-H522 lung; greater than 100 µM in the assay on LOX IMVI melanoma; greater than 100 µM with MOLT-4 leukemia. The TGI in the assay on SF-539 CNS and in the assay on EKVX NSCLC was greater than 100 µM in each case.
`CN(N=O)C(=O)NC(CCCCNC(=O)OCc1ccccc1)C(=O)OCc1ccccc1` (stereo not drawn): the TGI in the assay on TK-10 renal is greater than 100 µM; with HOP-62 NSCLC, 79.6 µM; in the assay with OVCAR-8 ovarian, 36.7 µM; with NCI-H522 lung, 29.1 µM; with LOX IMVI melanoma, 37.1 µM; in the assay on MOLT-4 leukemia, 64.9 µM. The TGI with A498 renal was greater than 100 µM; with SF-539 CNS, 32.7 µM; with EKVX NSCLC, greater than 100 µM.
For the compound `CCN(CC)CC(C(=O)Nc1c(C)cccc1C)/C(C)=N\NC(=S)NN` (stereo not drawn), the TGI with TK-10 renal, with HOP-62 NSCLC, in the assay on OVCAR-8 ovarian, with NCI-H522 lung, in the assay on LOX IMVI melanoma and with MOLT-4 leukemia was greater than 100 µM in each case. Also, the TGI with A498 renal, in the assay on SF-539 CNS and in the assay on EKVX NSCLC was greater than 100 µM each time.
For the compound `Cc1cc(C)c2c(c1)CSCc1cc(C)cc(C)c1-2`, the TGI was greater than 100 µM in the assay on TK-10 renal; 69.8 µM with HOP-62 NSCLC; greater than 100 µM in the assay on OVCAR-8 ovarian; 48 µM in the assay on NCI-H522 lung; 33.2 µM in the assay with LOX IMVI melanoma; 41.4 µM with MOLT-4 leukemia. Also, the TGI stood at 79.9 µM with A498 renal and 81.9 µM in the assay on EKVX NSCLC.
